Assays:
[1] = system: hepatic steatosis; experiment: short-term dietary supplementation with serine in obese subjects with hepatic steatosis; type: in vivo, human
Protocol: To test the model-based predictions, the present inventors assessed the effect of short-term dietary supplementation with serine on fatty liver and fasting levels of plasma markers of liver functions in six obese subjects (BMI 32.5±2.70 kg/m2) with hepatic steatosis. Each patient received one oral dose of ˜20 g of L-serine (200 mg/kg) per day for 14 days. The supplementation was well-tolerated by all subjects.

[2] = system: brain tissues; experiment: Alzheimer's disease study in HFD + icv STZ rats, histopathology (HE) of brain tissues; type: in vivo, Sprague-Dawley rats
Protocol: (§1) 12 weeks old female Sprague-Dawley rats (weighing 320-380 g) were kept at a controlled temperature of 22±2° C. and a controlled humidity of 50±5% on a 12-hour light/dark cycle. Food and water were available ad libitum. The animal experiments are performed at Medical Experimental Research Center, Ataturk University, Erzurum, Turkey. All experiments for the treatment of the animals were approved by the Ethics Committee of Atatürk University, and were conducted following the National Institutes of Health Guide for Care and Use of Laboratory Animals.
(§2) After acclimation to laboratory conditions for one (1) week, rats were randomly divided into two dietary regimens receiving either a Chow diet (CD) or a high-fat diet (HFD. The animals of Group 1 (n=4) were fed with only regular CD for five (5) weeks. The animals of Group 2 (n=4) were fed with CD and treated with STZ. The remaining animals (n=4) were fed with HFD for 3 weeks and sacrificed to verify the model development (Group 3). Groups 4-13 were fed with HFD for 5 weeks. After 3 weeks, the animals in Groups 5-13 were treated with STZ and administered with individual or combined substances. The animals in Group 4 were injected (icy) with a control substance (saline) after 3 weeks.
(§3) Before surgical procedures, the rats were anesthetized by intraperitoneal administration of ketamine-xylazine (50 mg/kg ketamine and 5 mg/kg xylazine) and placed individually in the stereotaxic instrument (Stoelting, Ill., USA). Stereotaxic coordinates for injection were 0.8 mm posterior to the bregma, 1.5 mm lateral to the sagittal suture and 3.6 mm below the brain surface (Pellegrino et al. 1979). Then, 10 microliters of STZ (3 mg/kg, Sigma-Aldrich, Darmstadt, Germany) were injected over 3 min with a Hamilton micro-syringe into the bilateral ventricle. The injection needles were left in place for an additional 2 min to allow diffusion.
(§4) For carrying out the treatment experiments, the HFD rats were randomly separated into nine (9) subgroups of four (4) animals (Groups 5-13).
(§5) The body weight of the rats was recorded each week. After 5 weeks, all animals were anesthetized with isoflurane and sacrificed. Blood samples were collected from the abdominal aorta and centrifuged at 8000 rpm for 15 min at 4° C. The plasma was separated and stored at −80° C. until further analysis. Other internal organs, including the heart, adipose tissues, liver, kidney, brain, muscle, intestine (duodenum, ileum, jejunum), pancreas, colon and stomach were immediately removed and then snap-frozen in liquid nitrogen and stored at −80° C.
Tissue samples obtained as a result of the experimental procedure were fixed in 10% buffered formalin solution for 48 hours. Following the routine tissue procedure, the tissues were embedded in paraffin blocks and 4 μm thick sections were taken from each block. Preparations prepared for histopathological examination were stained with hematoxylin-eosin (HE) and examined with a light microscope (Olympus BX51, Germany).

[3] = system: 8-OHdG; experiment: Alzheimer's disease study in HFD + icv STZ rats, immunohistochemical examination of brain tissues; type: in vivo, Sprague-Dawley rats; settings: for 8 OHdG expression in immunohistochemical staining: HFD + STZ rats, grade in words; for 8-OHdG (IHC): HFD 5 weeks + STZ 3 mg/kg icv, substances once daily by oral gavage, score
Protocol: as §1, §2, §3, §4, §5
Tissue sections taken on adhesive (poly-L-Lysin) slides for immunoperoxidase examination were deparaffinized and […]. After washing the tissues with suppressed endogenous peroxidase activity in 3% H2O2 were boiled in antigen retrieval solution. In order to prevent nonspecific background staining in the sections, protein block compatible with all primary and secondary antibodies was dropped and incubated for 5 minutes. 8-OHdG (Cat no: sc-66036 dilution ratio: 1/100 US) was used as the primary antibody for brain tissues.

[4] = system: Caspase 3; experiment: Alzheimer's disease study in HFD + icv STZ rats, immunofluorescence examination of brain tissues (FITC); type: in vivo, Sprague-Dawley rats; settings: for Caspase-3 expression in immunofluorescence staining: HFD + STZ rats, grade in words; for Caspase 3 (IFA FITC): HFD 5 weeks + STZ 3 mg/kg icv, substances once daily by oral gavage, score
Protocol: as §1, §2, §3, §4, §5
(§6) Tissue sections taken on adhesive (poly-L-Lysin) slides for immunoperoxidase examination were deparaffinized and […]. After washing the tissues with suppressed endogenous peroxidase activity in 3% H2O2 were boiled in antigen retrieval solution. In order to prevent nonspecific background staining in the sections, protein block compatible with all primary and secondary antibodies was dropped and incubated for 5 minutes. For brain tissues, primary antibody Caspase 3 (Cat No:sc-56053 Dilution Ratio:1/100 US) was dropped and incubated for 1 hour at 37° C. After washing, secondary FITC (Cat No: ab6717 Dilution Ratio:1/500 UK) was dropped and incubated at 37° C. for 30 minutes. The other primary antibody H2A.X (Cat No:I 0856-1 Dilution Ratio:1/100 US) was dropped and incubated at 37° C. for 1 hour. After washing, secondary Texas Red (Cat No: se-3917 Dilution Ratio:1/100 US) was dropped and incubated at 37° C. for 30 minutes. DAPI (Cat No:D-1306 Dilution Ratio:1/200 US) was dripped onto the washed tissues and incubated in the dark for 5 minutes, then glycerin was sealed.

[5] = system: H2A.X; experiment: Alzheimer's disease study in HFD + icv STZ rats, immunofluorescence examination of brain tissues (Texas Red); type: in vivo, Sprague-Dawley rats; settings: for H2A.X expression in immunofluorescence staining: HFD + STZ rats, grade in words; for H2A.X (IFA Texas Red): HFD 5 weeks + STZ 3 mg/kg icv, substances once daily by oral gavage, score
Protocol: as §1, §2, §3, §4, §5, §6

[6] = fasting plasma marker of liver function, after 14 days of ~20 g/day oral L-serine
[7] = brain tissues, HFD 5 weeks + STZ 3 mg/kg icv, substances once daily by oral gavage, score

Row | Structure (SMILES) | liver fat after supplementation ([1]; after 14 days of ~20 g/day oral L-serine, decreased significantly from 26.8±6.0% before) | ALP level [1, 6] | ALT level [1, 6] | AST level [1, 6] | tolerability of the supplementation ([1]; six obese subjects, one oral dose of ~20 g L-serine (200 mg/kg) per day for 14 days) | degeneration in neurons ([2]; HFD + STZ rats, grade in words) | hyperemia in brain tissues ([2]; HFD + STZ rats, grade in words) | necrosis in neurons ([2]; HFD + STZ rats, grade in words) | 8 OHdG expression in immunohistochemical staining [3] | Caspase-3 expression in immunofluorescence staining [4] | H2A.X expression in immunofluorescence staining [5] | Hyperemia [2, 7] | degeneration in neurons [2, 7] | necrosis in neurons [2, 7] | 8-OHdG (IHC) [3] | Caspase 3 (IFA FITC) [4] | H2A.X (IFA Texas Red) [5]
1 | N[C@@H](CO)C(=O)O [Group 6, serine] | 20.4±7.0% | significantly decreased | significantly decreased | significantly decreased | well-tolerated | moderate | Moderate | mild | moderate | moderate | moderate | – | – | – | – | – | –
2 | NC(CO)C(=O)O (centres unmarked) [Group 6] | – | – | – | – | – | – | – | – | – | – | – | +++ (moderate (+++)) | +++ (moderate (+++)) | ++ (mild (++)) | +++ (moderate (+++)) | +++ (moderate (+++)) | +++ (moderate (+++))
3 | CC(=O)N[C@@H](CS)C(=O)O [Group 7, N-acetyl-L-cysteine, reference compound] | – | – | – | – | – | severe | Severe | moderate | moderate | moderate | moderate | – | – | – | – | – | –
4 | CC(=O)NC(CS)C(=O)O (centres unmarked) [Group 7] | – | – | – | – | – | – | – | – | – | – | – | ++++ (severe (++++)) | ++++ (severe (++++)) | +++ (moderate (+++)) | +++ (moderate (+++)) | +++ (moderate (+++)) | +++ (moderate (+++))
5 | C[N+](C)(C)C[C@H](O)CC(=O)[O-].O=C(O)C(O)C(O)C(=O)O [Group 8, L-carnitine tartrate, reference compound] | – | – | – | – | – | moderate | Moderate | mild | moderate | moderate | moderate | – | – | – | – | – | –
6 | C[N+](C)(C)CC(O)CC(=O)O.C[N+](C)(C)CC(O)CC(=O)O.O=C([O-])C(O)C(O)C(=O)[O-] (centres unmarked) [Group 8] | – | – | – | – | – | – | – | – | – | – | – | +++ (moderate (+++)) | +++ (moderate (+++)) | ++ (mild (++)) | +++ (moderate (+++)) | +++ (moderate (+++)) | +++ (moderate (+++))
7 | NC(=O)c1ccc[n+]([C@@H]2O[C@H](CO)[C@@H](O)[C@H]2O)c1.[Cl-] [Group 9, nicotinamide riboside chloride] | – | – | – | – | – | moderate | Moderate | mild | moderate | moderate | moderate | – | – | – | – | – | –
8 | NC(=O)c1ccc[n+](C2OC(CO)C(O)C2O)c1.[Cl-] (centres unmarked) [Group 9] | – | – | – | – | – | – | – | – | – | – | – | +++ (moderate (+++)) | +++ (moderate (+++)) | ++ (mild (++)) | +++ (moderate (+++)) | +++ (moderate (+++)) | +++ (moderate (+++))

Reference: patent publication US20230270704A1, “AMINOACIDS FOR TREATMENT OF NEUROLOGICAL DISORDERS” (ScandiBio Therapeutics AB, priority 2020, published 2023)
